Entries after “also recorded” stand apart in the source; their conditions may differ.
Tests used:
[1] = Release of nitric oxide at acidic condition like artificial stomach; assay type: physicochemical; conditions: HCl solution with NaCl and KCl; Sievers Nitric Oxide Analyzer 280i
Procedure: (§1) To figure the optimum fermentation condition allowing fixating and stabilization of the nitric oxide metabolites at the highest level, production amount of nitric oxide metabolites was examined depending on various fermentation temperatures, dissolved oxygen concentrations (level), and chemical oxygen demands. For measuring the nitric oxide metabolites, amount of nitric oxide was measured under acidic condition and also reducing condition using a chemical method and calculation was made for the nitric oxide metabolites. As for the acidic condition, a condition mimicking human stomach was created using hydrochloride (HCl) solution with sodium chloride (NaCl) and potassium chloride (KCl), and then nitric oxide metabolites were released in the solution. […] Thereafter, by using a nitric oxide detector (Sievers Nitric Oxide Analyzer 280i), amount of the nitric oxide metabolites fixated in fermented substance was measured.
(§2) As a test material, a fermented substance using garlic, cabbage, onion, bean sprouts, lettuce, soybean, or cricket, and sodium nitrite were used. […] As a result, from all samples other than sodium nitrite (residual nitrite ion concentration of 5 mg/L), nitrite ion was not detected.

[2] = Release of nitric oxide at reducing condition mimicking the intestinal condition of human body; assay type: physicochemical; conditions: vitamin C and sodium chloride in phosphate buffer solution
Procedure: as §1, §2

[3] = samples collected after measurement at acidic or reduction condition
Procedure: as §2

[4] = tested on: rat injected with DOCA (high blood pressure); experiment: Blood pressure-lowering effect in test animal of high blood pressure (Example 9-2); assay type: in vivo, Sprague Dawley (SD) rat; conditions: 15-120 minutes; NaNO2 oral 18.6 mg/kg, test sample rectal 12.5 mg/kg as NO2-; once a day for 4 weeks
Procedure: The acclimated SD rat (8-week-old) was intraperitoneally injected with DOCA (deoxycorticosterone acetate; […] To determine an occurrence of high blood pressure, blood pressure was measured by using tail-cuff plethysmography (Muromachi Kikai, Japan), and animals with systolic blood pressure of at least 140 mmHg were selected and used for the test. When various plants rich in polyphenol are used, it is possible to obtain fermentation liquid containing both nitric oxide metabolites and polyphenol. In this example, fermented liquid obtained by fermenting Korean garlic was used for the test after concentration. Content of the nitric oxide metabolites in garlic fermentation concentrate which has been obtained after concentration was adjusted such that it is 200 ppm or higher in terms of NO2^−. It is preferable that the concentration step is carried out for 24 hours to 48 hours at temperature of 20° C. to 30° C. and stirring speed of 100 rpm to 300 rpm.

[5] = tested on: mouse injected with STZ (diabetes); experiment: Oral glucose tolerance test for test animal of diabetes (Example 9-3); assay type: in vivo, C57BL/6 mouse; conditions: glucose 2 g/kg; 15-120 minutes; NaNO2 oral 18.6 mg/kg, test sample rectal 12.5 mg/kg; once a day for 4 weeks
Procedure: (§3) As a test animal, 4-week-old male C57BL/6 mouse was obtained from Samtako (South Korea) and used. The test animals were acclimated for 1 week under the same breeding chamber condition as Example 5 above. The acclimated C57BL/6 mouse was then intraperitoneally injected once with STZ (streptozotocin; Sigma-Aldrich, USA) solution, which has been prepared at concentration of 120 mg/kg in 0.1 M citrate buffer (pH 4.5), to induce diabetes. Two weeks after administering STZ, the mouse was fasted for 16 hours and blood was taken from tail vein of the test animal to measure fasting blood glucose using a simple blood glucose meter (Glucotrend, Roche, Germany). […] Body weight, feed intake amount, and blood glucose level were measured twice a week. After one week, blood glucose level was measured again and test animals which maintained fasting blood glucose of not less than 200 mg/dL were selected and used for the test.
(§4) In this example, fermented liquid obtained by fermenting Korean garlic was used for the test after concentration. Content of the nitric oxide metabolites in garlic fermentation concentrate which has been obtained after concentration was adjusted such that it is 200 ppm or higher in terms of NO2^−. It is preferable that the concentration step is carried out for 24 hours to 48 hours at temperature of 20° C. to 30° C. and stirring speed of 100 rpm to 300 rpm.

[6] = tested on: test animal of diabetes (STZ); experiment: Blood markers of diabetes and diabetes complications after 4 weeks of administration (Example 9-4); assay type: in vivo, C57BL/6 mouse; conditions: 4 weeks once a day, NaNO2 oral, test sample rectal
Procedure: as §3, §4
To the test animal of diabetes prepared in Example 6, NaNO2 was administered orally once a day for 4 weeks or the test sample (garlic fermentation concentrate obtained by concentration) was administered rectally also once a day for 4 weeks. On the last day of test, blood was collected from all test animals to complete the test. After that, content of blood glucose, glycated hemoglobin, insulin, creatinine, and urea nitrogen in the collected blood were measured by using a diagnostic kit. Specifically, the blood glucose, glycated hemoglobin, and insulin of Table 3 were used for determining and analyzing the anti-diabetes effect, while creatinine and urea nitrogen of Table 3 were used for determining and analyzing the effect of alleviating the symptoms of diabetes complications. A decrease in kidney function is one of the diabetes complications, and creatinine and urea nitrogen are a clinical biomarker for measuring the kidney function.

[7] = tested on: mouse with DNFB-induced atopic dermatitis; experiment: DNFB-induced atopic dermatitis mouse: visual examination, ear swelling, histopathology; assay type: in vivo, Balb/c mouse; conditions: histopathological test, H&E, last day of test; control DNFB + DW 843.17 ± 55.22
Procedure: As a test animal, 5-week old male Balb/c mouse was obtained from Samtako (South Korea) and, after acclimatization for 1 week, used for the test. The breeding chamber for test animal has controlled light and darkness cycle with an interval of 12 hours, and temperature was maintained at 23±2° C. and humidity was maintained at 50 to 60%.
Cabbage fermentation extract was used as a test sample of the test, and, specifically, fermented cabbage which has been prepared according to the method of the present invention was frozen at −80° C. and freeze-dried for 5 days (PVTFD10R, Ilshin Lab, Korea). Thus-obtained powder was dissolved in distilled water and used as a test sample. […]
Anti-atopic effect was analyzed based on visual examination, ear swelling, measurement of interferon γ in blood serum, and histopathological examination. […]

Compound	release amount of nitric oxide at acidic condition like artificial stomach [1]	release amount of nitric oxide at reducing condition mimicking the intestinal condition of human body [2]	residual nitrite ion concentration [3]	change in blood pressure over time [4]	blood glucose level in OGTT [5]	Creatinine ([6]; control group 0.25 ± 0.05)	Glycated hemoglobin ([6]; control group 7.5 ± 0.3)	Urea nitrogen ([6]; control group 43.2 ± 0.8)	Insulin ([6]; control group 80.0 ± 10.7)	Fasting blood glucose ([6]; control group 480.0 ± 6.0, normal 106.0 ± 5.0)	Ear thickness [7]
O=N[O-].[Na+] [NaNO2, sodium nitrite]	130.7 mg/L	488.4 mg/L	5 mg/L	rapid decrease in blood pressure; also recorded: after the sharp decrease in initial blood pressure, the blood pressure has dramatically increased again	rapid decrease in blood glucose level; also recorded: no further decrease in the blood glucose level	0.18 ± 0.03 mg/dL	6.2 ± 0.3%	37.1 ± 0.5 mg/dL	150.0 ± 9.5 ng/mL	320.0 ± 11.0 mg/dL	
nitrite [DNFB + N]											463.67 ± 77.08 μm
citrate [DNFB + CA]											593.17 ± 71.27 μm

From patent US12685754B2, “Method of fixating and stabilizing nitric oxide metabolites through fermentation of nitrogen-containing natural substance” (priority 2019, dated 2026)
